From patent US20250213474A1, “COMPOSITIONS AND METHODS FOR METAL CONTAINING FORMULATIONS CAPABLE OF MODULATING IMMUNE RESPONSE” (The Regents of the University of Michigan, priority 2021, published 2025)

Assays:
NOOC1 tumor cells = test: NOOC1 ICB-resistant squamous cell carcinoma model; format: in vivo, C57BL/6 mice; conditions: CDA dose 5 μg I.T. or 20 μg I.V., days 9, 12, 16, 20
Experimental: NOOC1 was maintained in the IMDM media (Gibco cat #12440053). To make 1L of growth media for NOOC1, 626 ml IMDM base was mixed with 313 ml F-12 nutrient mix (Gibco cat #11765054), 50 ml FBS (Hyclone cat #SH3039603), 10 ml Pen Strep (Thermo Fisher cat #15-140-122), 1.25 ml of 4 mg/ml insulin (Invitrogen cat #12585014), 200 μl of 200 μg/ml hydrocortisone (Sigma-Aldrich cat #H0888-1G), and 50 μl of 100 μg/ml EGF (EMD Millipore cat #01-107). For in vivo implantation, Matrigel (Thermo Fisher cat #CB-40230) was thawed overnight at 4° C. On the day of injection, NOOC1 was washed once with PBS and mixed with Matrigel to reach a density of 2×10^7 cells/ml. Each mouse was inoculated subcutaneously with 2×10^6 cells (100 μl). Tumor size and survival were monitored every 2 or 3 days as indicated above.
To further evaluate the potency of CMP, we performed head-to-head comparison studies between CMPCDA and other STING-activating formulations. C57BL/6 mice were inoculated at S.C. flank with 3×10^5 B16F10 tumors cells, and we administered three doses of CMPCDA on three-day intervals via either I.T. route when the average tumor volume reached 153±17 mm^3 (FIGS. 23A-23E) or via I.V. route when the average tumor volume reached 63±7 mm^3. (FIGS. 23F-23J)). […]

CT26 colon cancer cells [1] = test: CT26 tumor model, I.V. administration of CMP; format: in vivo; conditions: free CDA 100 μg; CMPCDA 20 μg
Experimental: (FIG. 22A) CT26 tumor-bearing BALB/c mice were treated with CDA+ Mn^2+ or CMPCDA, I.V. on days 9, 12, and 15. […] (FIGS. 22D-22F) Tumor growth (FIGS. 22D-22E) and animal survival (FIG. 22F) were Monitored over time. (FIG. 22G) Survivors re-challenged with CT26 tumor cells on day 145 were monitored for tumor Growth and survival.
For CT26 murine tumor model, female BALB/c mice of age 6-8 weeks (Jackson Laboratories) were inoculated with 1.5×10^5 CT26 colon cancer cells subcutaneously on the right back flank. […] Tumor-bearing mice were randomly assigned to different treatment groups. Indicated drugs or formulations were administrated via indicated route at indicated time points. Tumor size and survival were monitored every 2-4 days. Tumor size was calculated based on equation: volume=length×width^2×0.5. Animals were euthanized when the tumor reached 1.5 cm in diameter or when animals became moribund with severe weight loss or un-healing ulceration.
To address this issue, we evaluated the therapeutic effect of CMP after I.V. administration. CT26 tumor-bearing BABL/c mice were treated I.V. on days 9, 12, and 15 with 20 μg CDA and 10 μg Mn^2+ either in CMPCDA or soluble form (FIG. 22A).

CT26 colon cancer cells [2] = test: CT26 colon tumor model, metal ion-CDA combinations and coordination formulations; format: in vivo, Balb/c mice; parameters: concentration or dose not given beside the values; conditions: three doses intratumoral on day 9, 12, 15
Experimental: FIGS. 6A-6D: Enhanced STING activation and cancer therapy efficacy by Co^2+ and Mn^2+ in Vivo. (FIG. 6A) individual tumor growth curve after three doses of intratumor injection of the indicated formulation at day 9, 12, 15 after tumor inoculation. (FIG. 6B) Serum IFN-beta concentration 8 h after the 1st dose of the indicated formulation. (FIGS. 6C-6D) individual tumor growth (FIG. 6C) and survival (FIG. 6D) of the tumor bearing mice after treated with the indicated formulations.
FIGS. 7A-7E: Enhanced STING activation by Co^2+ and Mn^2+ led to improved antigen specific immune response after In vivo. (FIG. 7A) the percentage of AH1-specific CD8+ T cells among PBMC on day 16. (FIG. 7B) IFN-γ secreting cells counts per 5E4 PBMCs after stimulation with AH1 peptides at day 22. […]
All animals were cared for following federal, state, and local guidelines. […] Tumor size and survival were monitored every 2 or 3 days. Tumor size was calculated based on equation: volume=length×width^2×0.5. […] At day 17, the percentages of tumor antigen-specific CD8α+ T cells among PBMC were analyzed using the tetramer staining assay as described previously with peptide-MHC tetramer ([…] AH1) (the NIH Tetramer Core Facility, Atlanta, GA). […]

## Nc1ncnc2c1ncn2[C@@H]1O[C@@H]2COP(=O)(O)O[C@H]3[C@@H](O)[C@H](n4cnc5c(N)ncnc54)O[C@@H]3COP(=O)(O)O[C@H]2[C@H]1O [free CDA, cyclic-di-AMP]
NOOC1 tumor cells
  anti-tumor efficacy in NOOC1 model: refractory
CT26 colon cancer cells [1]
  control of tumor growth by I.V. therapy: could not control tumor growth
CT26 colon cancer cells [2]
  survival rate: 20%
